According to publication PMC8322070, “A novel orally active HDAC6 inhibitor T-518 shows a therapeutic potential for Alzheimer’s disease and tauopathy in mice” (Scientific Reports, 2021):

Legend:
class I HDACs = assay: HDAC selectivity panel (Reaction Biology Corporation), class I; type: biochemical; details: heat map Fig. 2A
Method: Recombinant HDAC6, HDAC7, HDAC1 were obtained from SignalChem Pharmaceutical Inc. (Richmond, BC, Canada), and recombinant human HDAC4 was prepared at Takeda pharmaceutical company. One μL of T-518 diluted with DMSO was added to 75 μL of assay buffer (24 mM Tris–HCl (pH 7.5), 135 mM NaCl, 0.35 mM KCl, 1 mM MgCl2, 0.01% Tween 20, 0.6 mM GSH) in 384 well plates. Two μL of diluted compounds were added to 384 well plates and 2 μL of recombinant HDAC enzymes was added and then centrifuged at 1000 rpm for 10 s. The final concentrations of each HDAC enzyme were as follows, human HDAC1, 170 pM; human HDAC6, […]; human HDAC4, 68 pM; human HDAC7, 13 pM. After incubation for 60 min at room temperature, 4 μL of HDAC-Glo reagent [HDAC-Glo I/II (Promega) for HDAC6 and HDAC1, HDAC-Glo class IIa (Promega) for HDAC4 and HDAC7] was added to start the reaction. After incubation for 20 min at room temperature, the luminescence was measured by Envision plate reader (PerkinElmer, Waltham, MA, USA). For experiments under the condition of 0 min preincubation, 4 μL of HDAC-Glo reagent was added at first to the 384 well plates including diluted compounds. […] After centrifugation at 1000 rpm for 10 s. and then incubation for 20 min at room temperature, the luminescence was measured by Envision. […] The inhibitory activity of T-518 was expressed as the value of IC50. […]

[1] = test system: tubulin acetylation in mouse primary neural cultures; assay: Tubulin acetylation in mouse primary neural culture (ELISA); type: cell-based; details: DIV6 mouse primary neural culture, 0.1–10 μM, 24 h, ELISA
Method: (§1) T-518, ACY-738, Ricolinostat, and Tubastatin A were synthesized in Takeda. For in vitro cellular experiments, the compounds were solubilized with DMSO and diluted in the culture medium at the indicated concentrations. For in vivo experiments, the compound was reconstituted in 0.5% methylcellulose and administered orally at the indicated doses. After administration, mouse hippocampus was isolated and homogenized in RIPA extraction buffer (50 mM Tris–HCl, 150 mM NaCl, 1% NP-40, 0.5% sodium deoxycholate, and 0.1% SDS, pH 8.0) supplemented with protease and phosphatase inhibitor cocktail (Thermo Fischer, Waltham, MA, USA). The homogenate was centrifuged at 10,000g for 15 min and the supernatant was taken as the RIPA-soluble fraction.
(§2) Primary cortical neurons were prepared from E14 C57BL/6J mouse embryos (CLIEA Japan, Inc., Tokyo, Japan) using papain-containing Neuron Dissociation Solutions (Fujifilm Wako, Tokyo, Japan). Isolated cells were suspended in Neurobasal Medium containing B-27 (Thermo Fisher) and seeded on poly-D-lysine-coated plates (Corning, NY, USA) under 5% CO2 at 37 °C for 6 days in vitro (DIV) prior to evaluation of HDAC6 inhibitors. Cells were treated with HDAC6 inhibitors at the indicated concentrations for 24 h and lysed in RIPA extraction buffer (50 mM Tris–HCl, 150 mM NaCl, 1% NP-40, 0.5% sodium deoxycholate, and 0.1% SDS, pH 8.0) supplemented with protease and phosphatase inhibitor cocktail (Thermo Fisher).
Acetylated α-tubulin and total tubulin levels were measured by sandwich ELISA. Ninety six-well plates (Microlite2+, Thermo) were coated with α-tubulin capture antibody (1:100) by overnight incubation at 4 °C, washed 4 times with PBS'T, treated with blocking buffer (1% bovine serum albumin in PBS'T) at 37 °C for 2 h, and washed another 4 times with PBS’T. Cell or tissues lysate was added to the wells and plates were incubated at 37 °C for 2 h. Plates were then washed 4 times with PBST, incubated with a detection antibody for acetylated tubulin or total α-tubulin diluted in blocking buffer at 37℃ for 1 h, rewashed 4 more times with PBST, incubated with a mouse secondary antibody conjugated to horseradish peroxidase (HRP) for 30 min, wash 4 times again with PBST, and then incubated with chemiluminescent substrate (SuperSignal).

[2] = test system: Histone H3 acetylation in mouse primary neural cultures; assay: Histone H3 acetylation in mouse primary neural culture (Western blotting); type: cell-based; details: DIV6 mouse primary neural culture, 3 and 30 μM, 24 h
Method: as §1, §2
Cell lysate or in vivo protein samples were separated by 10% SDS-PAGE, then electrophoretically transferred to 0.45 μm poly-vinylidene difluoride membranes (Millipore). Membranes were blocked for 1 h in Blocking Reagent (TOYOBO, Osaka, Japan), probed with primary antibodies followed by labeling with HRP-coupled secondary antibodies (Amersham, Piscataway, NJ), and then visualized using chemiluminescence reagent (ECL; Amersham). Images were captured using ImageQuant LAS 4000 (GE healthcare Bio-Sciences, Marlborough, MA, USA). Quantitative densitometric analyses were conducted using ImageQuant TL (GE healthcare Bio-Sciences). The protocol was slightly modified for detection of HDAC6 in cortex. Briefly, cerebral cortex was homogenized in RIPA buffer supplemented with 1 μM microstatin, 1 μM MG115, 40 μM Leupeptin, 100 μM ABSF, and 2 mM sodium orthovanadate, separated by 7.5–15% gradient SDS-PAGE and electrophoretically transferred to 0.45 μm poly-vinylidene difluoride membranes (Millipore). Membranes were blocked for 1 h with ECL Prime Blocking Reagent (Amersham, Piscataway, NJ) prior to immunoblotting, visualization, and densitometry as described above.

class IIa HDACs = assay: HDAC selectivity panel (Reaction Biology Corporation), class IIa; type: biochemical; details: heat map Fig. 2A
Method: Recombinant HDAC6, HDAC7, HDAC1 were obtained from SignalChem Pharmaceutical Inc. (Richmond, BC, Canada), and recombinant human HDAC4 was prepared at Takeda pharmaceutical company. One μL of T-518 diluted with DMSO was added to 75 μL of assay buffer (24 mM Tris–HCl (pH 7.5), 135 mM NaCl, 0.35 mM KCl, 1 mM MgCl2, 0.01% Tween 20, 0.6 mM GSH) in 384 well plates. Two μL of diluted compounds were added to 384 well plates and 2 μL of recombinant HDAC enzymes was added and then centrifuged at 1000 rpm for 10 s. The final concentrations of each HDAC enzyme were as follows, human HDAC1, 170 pM; human HDAC6, […]; human HDAC4, 68 pM; human HDAC7, 13 pM. After incubation for 60 min at room temperature, 4 μL of HDAC-Glo reagent [HDAC-Glo I/II (Promega) for HDAC6 and HDAC1, HDAC-Glo class IIa (Promega) for HDAC4 and HDAC7] was added to start the reaction. After incubation for 20 min at room temperature, the luminescence was measured by Envision plate reader (PerkinElmer, Waltham, MA, USA). For experiments under the condition of 0 min preincubation, 4 μL of HDAC-Glo reagent was added at first to the 384 well plates including diluted compounds. After centrifugation at 1000 rpm for 10 s, 2 μL of HDAC enzyme solution was added. After centrifugation at 1000 rpm for 10 s. and then incubation for 20 min at room temperature, the luminescence was measured by Envision. For determination of inhibitory activity of T-518, the vehicle signal was set as 0% and the signal in the absence of HDAC enzyme was set as 100% inhibition. The inhibitory activity of T-518 was expressed as the value of IC50. The IC50 value and 95% confidence intervals were calculated by XLfit (IDBS, Surrey, UK). The HDAC selectivity panel was conducted by Reaction Biology Corporation (Malvern, PA, USA).

SMILES	inhibition of class I HDACs in HDAC panel (class I HDACs)	effect on tubulin acetylation [1]	effect on Histone H3 acetylation [2]	inhibition of class IIa HDACs in HDAC panel (class IIa HDACs)
O=C(NO)c1cnc(NC2(c3ccccc3)CC2)nc1 [ACY-738]	slightly inhibit	significantly and concentration-dependently elevates tubulin acetylation	increase the acetylation of histone H3	slightly inhibit
O=C(CCCCCCNC(=O)c1cnc(N(c2ccccc2)c2ccccc2)nc1)NO [Ricolinostat]	slightly inhibit	significantly and concentration-dependently elevates tubulin acetylation	increase the acetylation of histone H3	slightly inhibit
CN1CCc2c(c3ccccc3n2Cc2ccc(C(=O)NO)cc2)C1 [Tubastatin A]		significantly and concentration-dependently elevates tubulin acetylation	neither T-518 nor Tubastatin A at 3 and 30 μM demonstrates this activity	inhibits
